Assay results as given in patent US20180009764A1, “METHOD FOR TREATING MACROPHAGE MIGRATION INHIBITORY FACTOR (MIF)-IMPLICATED DISEASES AND CONDITIONS WITH IODO PYRIMIDINE DERIVATIVES” (UNIVERSITY OF LOUISVILLE RESEARCH FOUNDATION, INC., priority 2009, published 2018).

How the values were obtained:
[1] = Caco-2 cell permeability and transport; format: in vitro ADME; settings: human, Caco-2, pH 7.4
Method in brief: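 Caco-2 and MDR1-MDCK monolayers were run in triplicate, apical-to-basolateral and basolateral-to-apical, in modified Hanks buffer pH 7.4 with 1% BSA on the receiver side. Monolayer integrity was checked with atenolol and propranolol. Both sides were sampled at 2 h and quantified by LC/MS-MS.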

[2] = system: DU145 human prostate xenografts; assay: Microvessel density in xenograft tumors (immunohistochemistry); format: in vivo, athymic nude mice; settings: end of the DU145 xenograft experiment; FIG. 9
Experimental: At the end of the experiment described in EXAMPLE 69 above, tumors in each group were removed and sliced. Blood vessel density of the tumor tissues was measured by immunohistochemistry. […] These in vivo results confirmed that the compounds described in this application inhibit angiogenesis.

Fc1ccccc1-c1cc(I)ncn1 [ACT-MIF-003, 4-Iodo-6-(2-fluorophenyl)pyrimidine]
efflux ratio at 2 h [1]: 1.2 | Microvessel density of tumor tissues [2]: decrease in microvessel density with respect to the tumors of the control group with a statistically meaningful difference
